Literature values, collected in patent US6730319B2, “Pharmaceutical compositions having depressed melting points” (Hoffmann-La Roche Inc., priority 2001, dated 2004).

Settings: in vivo

Q: With `Cc1c(C)c2c(c(C)c1OC(=O)c1cccnc1)CC[C@@](C)(CCC[C@H](C)CCC[C@H](C)CCCC(C)C)O2` [alpha-tocopherol-nicotinate] as the molecule, how does the “bioavailability increase in the fed status compared to the fasted state” value read?
A: 28 fold
